From PMC6214715 (Journal of veterinary pharmacology and therapeutics, 2018)
Read-outs that look alike come from different tables or passages of the source.

How the values were obtained:
dog liver microsomes = assay type: in vitro ADME; conditions: for Km / Vmax: formation of (+)-M5 from substrate
human liver microsomes = assay type: in vitro ADME; conditions: pooled human liver microsomes (n = 48); (+)-M1 at 10 μM, (+)-M2 at 0.5 μM
CYP2C21 = target: T1, CYP2C21 (Canis lupus familiaris, UniProt P56594); assay type: in vitro ADME, canine; conditions: recombinant CYP2C21; (+)-M1 10 μM, (+)-M2 0.5 μM
T1 sequence (P56594 1-487): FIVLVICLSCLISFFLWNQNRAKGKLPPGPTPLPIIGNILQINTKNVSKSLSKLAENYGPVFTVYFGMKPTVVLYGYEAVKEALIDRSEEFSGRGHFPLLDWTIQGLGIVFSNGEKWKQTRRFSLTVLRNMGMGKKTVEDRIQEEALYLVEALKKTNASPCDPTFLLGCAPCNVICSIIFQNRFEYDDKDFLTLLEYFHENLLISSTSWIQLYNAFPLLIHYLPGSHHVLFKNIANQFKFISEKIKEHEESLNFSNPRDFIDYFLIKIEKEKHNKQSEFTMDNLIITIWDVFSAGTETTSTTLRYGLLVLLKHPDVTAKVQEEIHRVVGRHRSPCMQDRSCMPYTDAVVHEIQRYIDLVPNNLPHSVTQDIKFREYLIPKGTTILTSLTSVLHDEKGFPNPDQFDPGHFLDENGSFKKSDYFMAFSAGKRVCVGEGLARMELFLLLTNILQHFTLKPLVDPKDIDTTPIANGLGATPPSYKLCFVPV

CYP2C41 = target: T2, CYP2C41 (Canis lupus familiaris, UniProt O62671); assay type: in vitro ADME, canine; conditions: recombinant CYP2C41; (+)-M1 10 μM, (+)-M2 0.5 μM
T2 sequence (O62671 1-489): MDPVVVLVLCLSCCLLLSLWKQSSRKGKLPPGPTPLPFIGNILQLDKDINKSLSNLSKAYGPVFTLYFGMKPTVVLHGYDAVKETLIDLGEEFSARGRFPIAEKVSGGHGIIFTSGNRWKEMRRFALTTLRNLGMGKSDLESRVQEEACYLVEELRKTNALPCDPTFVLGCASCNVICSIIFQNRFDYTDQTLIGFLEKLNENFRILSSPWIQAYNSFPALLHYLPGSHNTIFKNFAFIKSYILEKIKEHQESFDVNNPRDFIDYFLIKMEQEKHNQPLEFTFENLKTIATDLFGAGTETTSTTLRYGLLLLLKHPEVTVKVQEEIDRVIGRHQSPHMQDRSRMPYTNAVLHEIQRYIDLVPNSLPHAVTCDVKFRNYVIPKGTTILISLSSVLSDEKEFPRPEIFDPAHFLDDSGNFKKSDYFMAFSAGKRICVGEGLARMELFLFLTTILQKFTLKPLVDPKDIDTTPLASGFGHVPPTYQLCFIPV

CYP2B11 = target: T3, CYP2B11 (Canis lupus familiaris, UniProt P24460); assay type: in vitro ADME, canine; conditions: recombinant CYP2B11; (+)-M1 10 μM, (+)-M2 0.5 μM
T3 sequence (P24460 1-494): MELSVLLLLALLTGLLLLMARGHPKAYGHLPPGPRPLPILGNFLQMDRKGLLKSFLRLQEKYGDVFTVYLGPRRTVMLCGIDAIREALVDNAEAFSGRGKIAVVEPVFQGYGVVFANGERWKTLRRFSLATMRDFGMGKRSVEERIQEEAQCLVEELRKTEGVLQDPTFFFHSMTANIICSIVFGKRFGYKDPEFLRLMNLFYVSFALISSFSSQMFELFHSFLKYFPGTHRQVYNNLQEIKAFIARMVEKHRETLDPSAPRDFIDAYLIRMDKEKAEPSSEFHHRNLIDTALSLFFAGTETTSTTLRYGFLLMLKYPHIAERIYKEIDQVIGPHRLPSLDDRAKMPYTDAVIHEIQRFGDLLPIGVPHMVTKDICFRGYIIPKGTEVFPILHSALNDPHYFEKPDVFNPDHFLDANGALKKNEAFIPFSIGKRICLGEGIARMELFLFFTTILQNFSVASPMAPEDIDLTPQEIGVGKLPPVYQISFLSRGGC

CYP3A12 = CYP3A12 (Canis lupus familiaris, UniProt P24463); assay type: in vitro ADME, canine; conditions: recombinant CYP3A12; (+)-M1 10 μM, (+)-M2 0.5 μM
CYP1A1 = target: T4, CYP1A1 (Canis lupus familiaris, UniProt P56590); assay type: in vitro ADME, canine; conditions: recombinant CYP1A1; (+)-M1 10 μM, (+)-M2 0.5 μM
T4 sequence (P56590 1-524): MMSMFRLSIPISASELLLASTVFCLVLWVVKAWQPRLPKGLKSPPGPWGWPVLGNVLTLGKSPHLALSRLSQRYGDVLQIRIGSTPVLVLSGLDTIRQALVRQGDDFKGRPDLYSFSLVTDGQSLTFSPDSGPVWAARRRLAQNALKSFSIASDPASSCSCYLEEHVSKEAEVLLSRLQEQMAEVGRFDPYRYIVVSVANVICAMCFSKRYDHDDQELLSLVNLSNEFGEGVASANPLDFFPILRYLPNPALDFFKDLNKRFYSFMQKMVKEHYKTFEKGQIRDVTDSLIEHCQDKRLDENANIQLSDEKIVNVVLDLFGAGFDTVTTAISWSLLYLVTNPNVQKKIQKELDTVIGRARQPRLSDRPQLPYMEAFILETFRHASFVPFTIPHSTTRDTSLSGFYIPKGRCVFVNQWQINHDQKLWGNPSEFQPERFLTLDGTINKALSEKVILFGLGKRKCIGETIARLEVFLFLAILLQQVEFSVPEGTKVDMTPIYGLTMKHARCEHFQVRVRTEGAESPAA

Chain of CYP3A12 (P24463 whole entry): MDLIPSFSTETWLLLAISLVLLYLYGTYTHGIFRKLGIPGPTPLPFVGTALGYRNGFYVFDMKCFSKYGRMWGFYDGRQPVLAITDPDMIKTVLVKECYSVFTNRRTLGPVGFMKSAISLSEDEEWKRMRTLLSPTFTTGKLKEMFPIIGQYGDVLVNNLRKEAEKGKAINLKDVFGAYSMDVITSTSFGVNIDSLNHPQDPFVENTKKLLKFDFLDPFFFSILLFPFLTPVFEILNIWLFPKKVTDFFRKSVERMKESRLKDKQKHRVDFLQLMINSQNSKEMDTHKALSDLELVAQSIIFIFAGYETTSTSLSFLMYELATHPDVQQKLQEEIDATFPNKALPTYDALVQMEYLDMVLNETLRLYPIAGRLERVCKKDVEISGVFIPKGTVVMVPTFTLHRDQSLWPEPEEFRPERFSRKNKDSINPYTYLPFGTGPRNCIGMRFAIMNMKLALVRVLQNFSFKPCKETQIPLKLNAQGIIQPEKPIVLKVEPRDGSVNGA

CN(C)CC1CCCCC1(O)c1cccc(O)c1.Cl (single isomer, unassigned; (+)) [(+)-M1, (+)-O-desmethyltramadol hydrochloride] was tested, and the Km (dog liver microsomes; Dog 10 liver microsomes) was 158 µM, the Vmax (dog liver microsomes; Dog 10 liver microsomes) was 63 pmol/min/mg protein and the Km (dog liver microsomes; Dog 31 liver microsomes) was 64 µM. The Vmax (dog liver microsomes; Dog 31 liver microsomes) was 67 pmol/min/mg protein, the Km (dog liver microsomes; Dog 46 liver microsomes) was 108 µM and the Vmax (dog liver microsomes; Dog 46 liver microsomes) was 94 pmol/min/mg protein. The Km (dog liver microsomes; pDLM (liver microsomes pooled from 59 dogs)) was 112 µM, the Vmax (dog liver microsomes; pDLM (pooled from 59 dogs)) was 61 pmol/min/mg protein and the “(+)-M5 formation rate (in words)” value (dog liver microsomes; pooled dog liver microsomes (n = 59), (+)-M1 at 10 μM, (+)-M2 at 0.5 μM) was “highest activities”. The “(+)-M5 formation rate (in words)” value (human liver microsomes) was “low activities”, the “formation rate of (+)-M5 (in words)” value (CYP2C21) was “highest” and the “formation rate of (+)-M5 (in words)” value (CYP2C41) was “somewhat lower activities”. The “formation rate of (+)-M5 (in words)” value (CYP2B11) was “somewhat lower activities”, the “formation rate of (+)-M5 (in words)” value (CYP3A12) was “only very low activities” and the “formation rate of (+)-M5 (in words)” value (CYP1A1) was “only very low activities”.
